Source: patent publication US11965159B2, “Compositions and methods for regulating proteins and nucleic acids activities” (THE BROAD INSTITUTE, INC., priority 2019, dated 2024)
“Also recorded” adds a separate entry of the source.

How the values were obtained:
[1] = system: CRISPR-Cas9 based immunity in S. aureus RN4220; test: Bacterial resistance study against phage (CRISPR immunity, OD600 growth curves); type: cell-based; conditions: 5-20 μM, 16 h, MOI 1
Description: (§1) Bacterial study. Plasmid pRH248 harboring SpCas9, tracrRNA and a single-spacer array ([…]) (SEQ ID NO:7) targeting phage DNM474 was constructed via BsaI cloning onto pDB114 as described in Heler et al 6. Plate reader growth curves of bacteria infected with phage were conducted as described previously with minor modifications 7. Overnight cultures were diluted 1:100 into 2 ml of fresh BHI supplemented with appropriate antibiotics and 5 mM CaCl2) and grown to an OD600 of ˜0.2. Immune cells carrying pRH248 were diluted with cells lacking CRISPR-Cas in a 1:10,000 ratio. Following a 15-minute pre-incubation with DMSO or with varying amounts of inhibitors (5-20 μM), the cultures were infected with DNM474 at an initial MOI of 1. To produce plate reader growth curves, 200 μL of infected cultures, normalized for OD600, were transferred to a 96-well plate in triplicate. OD600 measurements were collected every 10 minutes for 16 hours. Similarly, growth curves to evaluate the toxicity of the compounds at 20 μM (FIG. 32) were conducted on cultures lacking CRISPR in the absence of phage.
(§2) Bacterial study. […] Plate reader growth curves of bacteria infected with phage were conducted as described previously with minor modifications^7. […] To produce plate reader growth curves, 200 μL of infected cultures, normalized for OD600, were transferred to a 96-well plate in triplicate. […]

SpCas9 = SpCas9 (Streptococcus pyogenes serotype M1, UniProt Q99ZW2); test: mCherry-GFP NHEJ assay; type: cell-based; parameters: host or cells: U2OS.eGFP-PEST; conditions: 2-10 μM, 24 h
Description: NHEJ assay. Approximately 8,000 cells/well were plated in a 96-well format 24 h before transiently transfected with a total 100 ng of DN66 (mCherry-TAG-GFP reporter) and DN78 (SpCas9 and gRNA) plasmids (1:1) using Lipofectamine™ 2000 (Life Technologies™) 3. Transfected cells were allowed to grow in the indicated amount of compound or DMSO for 24 h. Cells were then fixed using 4% paraformaldehyde and imaged with the HCS NuclearMask™ Blue Stain (Life Technologies™) as the nuclear counter-staining agent. Imaging was performed with an IXM 137204 ImageXpress® Automated High Content Microscope (Molecular Devices™) at 20× magnification under three excitation channels (blue, green and red) with 9 acquiring sites per well. Images were analyzed in the MetaXpress® software to determine the % NHEJ and the data were plotted using GraphPad Prism 6. The Z′-value was calculated following the formula:
NHEJ assay. Approximately 8,000 cells/well were plated in a 96-well format 24 h before transiently transfected with a total 100 ng of DN66 (mCherry-TAG-GFP reporter) and DN78 (SpCas9 and gRNA) plasmids (1:1) using Lipofectamine™ 2000 (Life Technologies™)^3. […] Images were analyzed in the MetaXpress® software to determine the % NHEJ and the data were plotted using GraphPad Prism 6. The Z′-value was calculated following the formula: […]

U2OS.eGFP.PEST cells = test: Cell viability assay (ATP content) of U2OS.eGFP.PEST cells; type: cell-based, human; conditions: for cytotoxicity (ATP content) in secondary screen: 20 μM compounds, 48 h; for cellular ATP-levels: U2OS cells, up to 20 μM, 24 h
Description: FIG. 14—Cell viability assay (ATP content) of U2OS.eGPF.PEST cells in the presence of compounds. Measurement of ATP content of U2OS.eGFP.PEST cells upon incubating with 20 μM compounds for 48 h. Error bars represent ±S.D. from technical replicates (n=3).
FIG. 22—Cell viability assay (ATP content) of U2OS.eGFP.PEST cells in the presence of compounds. Measurement ATP content of U2OS.eGFP.PEST cells upon incubating with BRD7087 and BRD5779 (5-20 μM) for 24 h. Error bars represent ±S.D. from technical replicates (n=3).
FIG. 58. Cell viability assay (ATP content) of U2OS.eGFP.PEST cells in the presence of compounds. Measurement of ATP content of U2OS.eGFP.PEST cells upon incubating with 20 μM compound for 48 h. Error bars represent±S.D. from technical replicates (n=3).
FIG. 66. Cell viability assay (ATP content) of U2OS.eGFP.PEST cells in the presence of compounds. Measurement of ATP content of U2OS.eGFP.PEST cells upon incubating with BRD7087 and BRD5779 (5-20 μM) for 24 h. Error bars represent ±S.D. from technical replicates (n=3).

S. aureus RN4220 = test: Toxicity study of compounds in bacterial culture (absence of phage); type: cell-based; conditions: 20 μM, 16 h, no phage
Description: FIG. 79. Toxicity study of compounds in bacterial culture. Bacterial growth study in the presence of the compound. Bacterial cell S. aureus RN4220 strain was allowed to grow either in the presence of DMSO or 20 μM of compound BRD7087 or BRD5779 over 16 h. The experiment was performed in three technical replicates.
as §1, with “Following a 15-minute pre-incubation with DMSO or with varying amounts of inhibitors (5-20 μM), the cultures were infected with DNM474 at an initial MOI of 1.” left out, “OD600 measurements were collected every 10 minutes for 16 hours. Similarly, growth curves to evaluate the toxicity of the compounds at 20 μM (FIG. 32) were conducted on cultures lacking CRISPR in the absence of phage.” left out
as §2

SpCas9, sequence (Q99ZW2 whole entry): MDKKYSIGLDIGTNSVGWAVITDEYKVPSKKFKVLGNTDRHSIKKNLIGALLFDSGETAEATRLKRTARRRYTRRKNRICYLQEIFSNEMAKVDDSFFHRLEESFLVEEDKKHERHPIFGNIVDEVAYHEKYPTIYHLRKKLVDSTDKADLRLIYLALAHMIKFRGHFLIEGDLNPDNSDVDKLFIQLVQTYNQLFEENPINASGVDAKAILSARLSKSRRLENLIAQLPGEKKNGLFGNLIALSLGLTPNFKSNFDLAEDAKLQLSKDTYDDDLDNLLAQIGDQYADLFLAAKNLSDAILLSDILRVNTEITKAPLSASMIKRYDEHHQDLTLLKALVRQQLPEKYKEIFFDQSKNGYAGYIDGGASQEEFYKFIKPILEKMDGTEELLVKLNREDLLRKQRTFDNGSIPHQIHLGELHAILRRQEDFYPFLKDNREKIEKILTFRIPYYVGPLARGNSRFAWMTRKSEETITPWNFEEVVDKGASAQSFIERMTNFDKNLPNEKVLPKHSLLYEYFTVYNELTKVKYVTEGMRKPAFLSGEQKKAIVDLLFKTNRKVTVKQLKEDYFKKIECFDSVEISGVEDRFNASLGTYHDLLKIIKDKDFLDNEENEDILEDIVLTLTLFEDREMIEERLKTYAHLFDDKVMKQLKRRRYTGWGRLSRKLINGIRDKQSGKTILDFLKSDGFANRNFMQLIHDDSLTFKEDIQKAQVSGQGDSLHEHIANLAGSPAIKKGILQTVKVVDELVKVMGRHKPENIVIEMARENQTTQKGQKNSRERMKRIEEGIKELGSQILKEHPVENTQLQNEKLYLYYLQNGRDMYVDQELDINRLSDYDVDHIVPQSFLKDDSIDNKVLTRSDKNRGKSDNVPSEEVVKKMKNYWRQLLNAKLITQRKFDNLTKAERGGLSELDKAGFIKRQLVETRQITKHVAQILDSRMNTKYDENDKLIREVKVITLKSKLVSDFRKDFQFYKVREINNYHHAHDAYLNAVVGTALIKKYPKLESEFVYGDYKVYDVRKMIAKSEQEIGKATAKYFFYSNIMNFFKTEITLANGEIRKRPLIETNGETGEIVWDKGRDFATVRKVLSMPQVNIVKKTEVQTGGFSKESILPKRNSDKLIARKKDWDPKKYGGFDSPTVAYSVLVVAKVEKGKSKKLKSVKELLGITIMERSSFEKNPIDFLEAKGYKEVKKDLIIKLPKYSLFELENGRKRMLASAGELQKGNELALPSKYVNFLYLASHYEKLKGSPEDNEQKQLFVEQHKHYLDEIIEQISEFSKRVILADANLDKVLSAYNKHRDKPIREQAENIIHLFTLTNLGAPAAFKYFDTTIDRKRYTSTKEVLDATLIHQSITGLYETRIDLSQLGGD

**Q.** For `COc1ccc(-c2ccc3c(c2)[C@H]2[C@H](CCN2Cc2ccncc2)[C@@H](CO)N3)cc1` [BRD5779, ((3aR,4S,9bR)-8-(4-Methoxyphenyl)-1-(pyridin-4-ylmethyl)-2,3,3a,4,5,9b-hexahydro-1H-pyrrolo[3,2-c]quinolin-4-yl)methanol], which “blockage of CRISPR-Cas9 immunity (sensitization of immune bacteria to phage, OD600)” value [1] is on record?
**A.** dose-dependent blockage of CRISPR-Cas9 based immunity; also recorded: able to sensitize the immune bacterial cells against target phage in a dose-dependent manner

**Q.** What about the “inhibition of SpCas9-mediated NHEJ” value (SpCas9) of the same compound?
**A.** active; also recorded: Dose-dependent inhibition of SpCas9-mediated NHEJ

**Q.** What about the “cytotoxicity (ATP content) in secondary screen” value (U2OS.eGFP.PEST cells) of the same compound?
**A.** non-toxic

**Q.** And the “cellular ATP-levels” value (U2OS.eGFP.PEST cells)?
**A.** did not significantly alter

**Q.** And the “toxicity to bacteria in the presence of inhibitor alone” value (S. aureus RN4220)?
**A.** non-toxic in the absence of phage

**Q.** Which “blockage of CRISPR-Cas9 immunity (sensitization of immune bacteria to phage, OD600)” value [1] does the source give for `OC[C@H]1Nc2ccc(-c3cccc(F)c3)cc2[C@H]2[C@@H]1CCN2Cc1ccncc1` [BRD7087, ((3aR,4S,9bR)-8-(3-Fluorophenyl)-1-(pyridin-4-ylmethyl)-2,3,3a,4,5,9b-hexahydro-1H-pyrrolo[3,2-c]quinolin-4-yl)methanol] here?
**A.** dose-dependent blockage of CRISPR-Cas9 based immunity; also recorded: able to sensitize the immune bacterial cells against target phage in a dose-dependent manner; also recorded: higher activity

**Q.** And the “inhibition of SpCas9-mediated NHEJ” value (SpCas9)?
**A.** active; also recorded: Dose-dependent inhibition of SpCas9-mediated NHEJ

**Q.** What about the “cytotoxicity (ATP content) in secondary screen” value (U2OS.eGFP.PEST cells) of the same compound?
**A.** non-toxic

**Q.** And the “cellular ATP-levels” value (U2OS.eGFP.PEST cells)?
**A.** did not significantly alter

**Q.** And the “toxicity to bacteria in the presence of inhibitor alone” value (S. aureus RN4220)?
**A.** non-toxic in the absence of phage
